Measurements from patent US4369120A, “Refrigeration liquid with leak indicator and process of using same” (priority 1981, dated 1983).
Entries after “also recorded” stand apart in the source; their conditions may differ.

What was measured:
[1] = 400° F. (204.4° C.), reported in U.S. Pat. No. 3,770,640; cited from earlier work
[2] = Solubility of dyes in refrigeration oils; details: for Dye Solubility in refrigeration oil: room temperature (about 21° C.); for Oil Sol. In 3GS: Table I, Suniso 3GS refrigeration oil
Procedure: Manufacturers of refrigeration equipment generally demand that any refrigeration liquid satisfactorily pass such a sealed tube test before they approve the liquid for use in their equipment. In addition, the solubility of the various dyes in oil and in refrigerant were determined.
Solubility of various dyes in various refrigeration oils was carefully determined according to the following standardized procedure. An excess of the subject dye was added to a given weight (e.g., 100 g) of refrigerant oil. The mixture was stirred for one-half hour with mild heating, whereupon it was cooled to room temperature (about 21° C.) and transferred to a centrifuge tube. The mixture was centrifuged approximately 15 minutes at 1000 rpm. A sample of the supernatant liquid was decanted (1.00 g±0.01 g) and diluted to 100 ml volume with methylene chloride. Aliquot portions were taken and read against the principal absorption peaks by visible light spectroscopy. Wt/wt percentage concentrations were then calculated from proper standard curves.

[3] = Sealed tube test of stability of dyes in refrigerant/refrigeration oil with metal coupons; format: physicochemical; details: for Stability, Mean Life: Table I, sealed tube data in R-12 at 350° F.; for stability as measured by the sealed tube test: text summary of Table I, 350° F.
Procedure: By reference to Table I below it can be appreciated that such ortho substitution has a remarkably beneficial effect on the stability of the dyes in the accelerated sealed tube test used for evaluation. The first three dyes listed, embodying the principles of this invention, routinely withstand in excess of twenty days in the sealed tube test at 350° F. (176.7° C.), equivalent to many years of normal use in a refrigeration system.
The sealed tube test serves as a method of evaluating in an accelerated manner interactions of materials found in a refrigeration system.
Glass tubes and all metal test coupons are scrupulously cleaned. Test refrigerants are distilled to minimize moisture contamination. Moisture is removed from the refrigeration test oil "Suniso" 3GS by subjecting the oil to a vacuum with slight stirring and heating. Ratios of refrigerant/refrigerant oil range from 1:1 to 1:2 by weight.
Refrigerant oil and representative metal coupons of copper #10AWG wire, Swedish valve stock steel, and aluminum metal sheet are placed in a glass tube along with the subject test dye material (0.25-1.0% wt/wt) dissolved in the refrigerant oil. Like samples without the subject dye are analyzed as controls.
The tube and its contents are chilled in a liquid nitrogen bath while the refrigerant is condensed into the tube via a calibrated manometer. The tube is sealed under a vacuum of at least 0.1 torr.
Glass tubes and contents are subjected to uniform heating in a bored aluminum block placed in a temperature-programmed oven.
The oven temperatures used vary according to the test refrigerant, as indicated:
The test is run for one of the following time periods: 5, 14, 21, 30 or 60 days.
The tube contents may be evaluated by several methods:
of these methods, the visual examination is the most rapid and the only qualitative method. Any color change in the subject dye coloration is noted when compared to a control sample.
The quantitative methods involve analysis for decomposition products of chloride as hydrochloric acid or organic products by gas chromatography, infrared spectroscopy, or mass spectroscopy. However, visual inspection and gas chromatography are widely used, and they were selected as standardization procedures for evaluation of sealed tube contents.
R-12 is chemically one of the more reactive refrigerants; thus, short term tests with refrigeration liquids containing this refrigerant admixed with a mineral oil yield the most rapid results. R-22 and R-502 are also used but the decomposition products are more difficult to analyze by gas chromatography. Ultimately the test material must pass interactions involving any of these refrigerants. The visual method can be used empirically on a pass-fail basis. As verified experimentally, visual results are considered as valid as instrumental methods.

[4] = Solubility of dyes in halocarbon refrigerants; format: physicochemical; details: for Refr. Sol. In R-12: Table I, refrigerant R-12
Procedure: Solubilities of various dyes in various halocarbon refrigerants were also determined according to the following standardized procedure. […] The R-11 was allowed to vaporize, leaving a known amount of dye in the bottom portion of the test tube. The tube was then attached to a charging apparatus containing a supply of a given halocarbon refrigerant and various amounts of the refrigerant were charged into the tube while chilling the latter by immersion in liquid nitrogen. The tube containing the dye/refrigerant mixture was sealed under vacuum, allowed to reach room temperature (about 21° C.) and rotated for several hours. Visual inspection of the tube was made at several temperatures to note the degree of dissolution. The procedure was improved over previously used methods in that an exact predetermined amount of dye and refrigerant were made to interact, requiring fewer weighings. Finally, it became possible to use the same tube to check solubility at several different temperatures.

| SMILES | solubility in the refrigeration oil (in words) [2] | Oil Sol. In 3GS [2] | Stability, Mean Life [3] | stability as measured by the sealed tube test [3] | solubility in the halocarbon refrigerant (in words) [4] | Solubility in refrigerant ([4]; R-12, 21° C.) | Solubility in refrigerant ([4]; R-22, 21° C.) | Solubility in refrigerant ([4]; R-502, 21° C.) | Refr. Sol. In R-12 [4] | further results |
| --- | --- | --- | --- | --- | --- | --- | --- | --- | --- | --- |
| CCc1cc(CC)c(Nc2ccc(Nc3c(CC)cc(CC)cc3CC)c3c2C(=O)c2ccccc2C3=O)c(CC)c1 [1,4-bis(2,4,6-triethylanilino)anthraquinone] | – | – | – | – | – | – | – | – | – | stability in the sealed tube test at 400° F. (in words) [1]: very unstable; also recorded: so poor as to make this dye commercially unacceptable |
| CCc1cccc(C)c1Nc1ccc(Nc2c(C)cccc2CC)c2c1C(=O)c1ccccc1C2=O [Dye No. 1-35, 1,4-bis(2-methyl-6-ethylanilino)anthraquinone] | relatively high solubility | 4.8% | 26.2 days | > 20 days | sufficient solubility; also recorded: substantially greater solubility in the various refrigerants than the other dyes tested | 0.2 %(wt/wt) | 0.4 %(wt/wt) | 0.1 %(wt/wt) | 0.2% | Dye Solubility in refrigeration oil ([2]; DuPont Zephron 150 (alkyl benzene type)): 5.3 %(wt/wt); Dye Solubility in refrigeration oil ([2]; Suniso 3GS): 4.8 %(wt/wt); Dye Solubility in refrigeration oil ([2]; Suniso 4GS): 4.6 %(wt/wt); Dye Solubility in refrigeration oil ([2]; Suniso 5GS): 4.8 %(wt/wt); Dye Solubility in refrigeration oil ([2]; Texaco Cappella D): 4.8 %(wt/wt); Dye Solubility in refrigeration oil ([2]; Texaco Cappella E): 4.9 %(wt/wt); solubility in representative naphthenic and alkyl benzene refrigeration oils ([2]; summary of Table II): about 5%; stability in the sealed tube test at 402° F. (in words) ([3]; 402° F. (205.5° C.), compared with 350° F.): virtually as stable at 402° F. (205.5° C.) as it is at 350° F. (176.7° C.); also recorded: excellent stability of dye No. 1-35 persists even at much higher test temperatures; Mean Life, Days at 350° F. ([3]; Sample C, purity 97%): 24.0 days; Mean Life, Days at 350° F. ([3]; Sample D, purity 95%): 24.0 days; Mean Life, Days at 350° F. ([3]; Sample E, purity 89%): 17.0 days; Mean Life, Days at 350° F. ([3]; Sample F, purity 65%): 5.0 days; Mean Life, Days at 350° F. ([3]; Samples A and B, purity 100% (by definition)): 26.2 days; Solubility in refrigerant ([4]; R-11, 21° C.): 0.2 %(wt/wt); Solubility in refrigerant ([4]; R-12, 0° C.): 0.2 %(wt/wt); Solubility in refrigerant ([4]; R-12, -20° C.): 0.2 %(wt/wt); Solubility in refrigerant ([4]; R-22, 0° C.): 0.4 %(wt/wt); Solubility in refrigerant ([4]; R-22, -20° C.): 0.4 %(wt/wt); Solubility in refrigerant ([4]; R-502, 0° C.): < 0.1 %(wt/wt); Solubility in refrigerant ([4]; R-502, -20° C.): < 0.1 %(wt/wt) |
| Cc1cccc(C)c1Nc1ccc(Nc2c(C)cccc2C)c2c1C(=O)c1ccccc1C2=O [Dye No. 2-31, 1,4-Bis(2,6-dimethylanilino)-anthraquinone] | relatively high solubility | 0.1% | 22.4 days | > 20 days | sufficient solubility | < 0.02 %(wt/wt) | 0.04 %(wt/wt) | < 0.02 %(wt/wt) | < 0.1% | – |
| Cc1cc(C)c(Nc2ccc(Nc3c(C)cc(C)cc3C)c3c2C(=O)c2ccccc2C3=O)c(C)c1 [Dye No. 3-25, 1,4-Bis(mesidino)anthraquinone] | relatively high solubility | 0.55% | 24.3 days | > 20 days | sufficient solubility | – | – | – | < 0.1% | – |
